The test system of data set [1] is HL-60, KG-1, MonoMac-1 and Kasumi-1 AML cell lines. Nature of the data set: Cell viability of AML cell lines by flow cytometry (7-AAD/Hoechst, volumetric count). Type of data set: cell-based, human. As to the method:
FIG. 1. […] 10^6 HL-60, KG-1, MonoMac-1 and Kasumi-1 cells per mL in complete RPMI media were treated with 0.1, 1 and 10 μM Apomorphine for 72 h. […] Cells were stained with 7-aminoactinomycin D (7-AAD, CAS no. 7240-37-1) and Hoechst 33342 (CAS no. 23491-52-3) and analyzed by flow cytometry. […] Cell number was calculated by volumetric count. A. The mean (symbol) for each AML cell line and standard deviation (error bars) from 6 different biological replicates are represented. B. The average corresponding to the four different AML cell lines is represented. *p<0.05.
FIG. 2. […] Cell number was calculated by volumetric count. A. The mean (symbol) for each AML cell line and standard deviation (error bars) from 6 different biological replicates are represented. B. AML cell lines were treated with 10 μM Apomorphine or Methiothepin in the presence or absence of 5-CT or 5-HT. *p<0.05. Apo: apomorphine; Methio: methiothepine.
In order to test the anti-leukaemic effect of 5HTR antagonists, HL-60 (Collins, Gallo et al. Nature. 1977; 270(5635):347-9), MonoMac-1 (Steube, Teepe et al. Leuk Res. 1997; 21(4):327-35), KG-1 (Koeffler and Golde. Science. 1978; 200(4346):1153-4) and Kasumi-1 (Asou, Tashiro et al. Blood. 1991; 77(9):2031-6) AML (Acute Myeloid Leukaemia) cell lines were treated with the broad 5HTR antagonist Apomorphine (CAS no. 314-19-2) at different doses for 72 h. One million cells per mL were seeded in complete RPMI media supplemented with 10% fetal bovine serum in a 96-well plate. The concentration used for the Apomorphine treatment was 0.1, 1 and 10 μM.
The human 5HTR family is composed by 7 subtypes (from 1 to 7) of receptors […]. HL-60, KG-1, MonoMac-1 and Kasumi-1 AML cell lines were incubated with subtype-specific 5HTR antagonists: Apomorphine (type 1, 2 and 5), Methiothepin (type 1 and 2) (CAS no. 74611-28-2), Amperozide (type 2) (CAS no. 75558-90-6), GR113808 (type 4) (CAS no. 144625-51-4). 72 h after treatment, cell viability was determined by flow cytometry. Cells were stained with 7-AAD (CAS no. 7240-37-1) and Hoechst 33342 (CAS no. 23491-52-3). Viability cells were identified by 7-AAD staining exclusion and the presence of Hoechst positive stain. Cell counts were measured by volume. […] In fact, the anti-leukaemic effect was reversed in the presence of a competitive agonist such as the natural ligand 5-HT (CAS no. 153-98-0) or 5-CT (CAS no. 74885-72-6).
Background: A flow cytometer gives signals particle by particle.

The test system of data set [2] is lineage-depleted UCB cells. Nature of the data set: Engraftment of ex vivo treated lineage-depleted UCB cells in NSG mice. Details: species or system mouse. As to conditions: ex vivo 10 μM for 18 h; 8 weeks after transplantation. The method, then: FIG. 16. 5HTR antagonist treatment reduces the leukemia regeneration capacity of primary AML cells, whilst sparing healthy hematopoietic stem/progenitor cells. 1-10×10^6 primary AML patient cells or 10-14×10^4 lineage-depleted CB cells were ex vivo treated (10 μM apomorphine, 10 μM methiothepin or vehicle control) for 18 h in IMDM supplemented with 5% heat-inactivated fetal bovine serum and hematopoietic cytokines. Cells were injected IV in previously busulfan (30 mg/kg)-conditioned NSG mice and left 8 weeks untreated. Mice were sacrificed and their bones (iliac crests, femurs and tibias) were harvested and analyzed for the presence of human leukemia (upper panel) or healthy blood (lower panel) cells by flow cytometry. Four AML patient samples and three umbilical cord blood (UCB) samples were tested. *p<0.05; **p<0.01.
Leukemia-initiating cells (LIC) or LSCs are responsible for the engraftment of AML cells in xenograft mouse models and are thought to initiate and maintain the disease in humans. Primary AML patient samples were treated ex vivo with 5HTR antagonists for 18 h and transplanted into conditioned immunodeficient NSG mice. Eight weeks after transplantation, murine bone marrow was analyzed for the presence of human AML cells.

Data set [3] deals with HL-60, KG-1, MonoMac-1 and Kasumi-1 AML cell lines. Nature of the data set: Differentiation-associated surface markers on AML cell lines by flow cytometry. It is filed as cell-based, human. As to conditions: 0.1, 1 and 10 μM, 72 h; all AML cell lines. As to the method: FIG. 5. […] The surface expression of CD11c, CD11b and CD14 was detected by flow cytometry. […] MFI: Mean Fluorescence Intensity.
HL-60, KG-1, MonoMac-1 and Kasumi-1 AML cell lines were treated with Apomorphine and Methiothepin at different concentrations for 72 h as described above. The expression of differentiation-associated surface markers was measured by flow cytometry.

Another data set deals with primary AML blasts. Nature of the data set: Cell viability of primary patient AML samples (bulk and CD34+CD38- primitive population). Type of data set: cell-based, human. As to conditions: 0.1, 1 and 10 μM, 24 and 72 h. As to the method: FIG. 3. […] The primitive AML population was identified within the AML bulk population based on their positivity to CD34 and negativity to CD38. […] Cell number was calculated by volumetric count. 11 primary AML samples were analyzed in triplicates. Each symbol represents a specific AML patient.
FIG. 4. […] The primitive AML population was identified within the AML bulk population based on their positivity to CD34 and negativity to CD38. […] Cell number was calculated by volumetric count. 11 primary AML samples were analyzed in triplicates. Each symbol represents a specific AML patient.
Primary AML patient samples were treated with subtype 1 and 2 HTR antagonists for 24 and 72 h at 0.1, 1 and 10 μM. Five hundred thousand cells per mL were seeded in IMDM supplemented with insulin, transferrin, bovine serum albumin, IL3 and non-essential aminoacids. Cell viability was measured by flow cytometry as described above.
Like the normal haematopoietic system, AML is thought to be organized as a hierarchy of distinct and functionally heterogeneous classes of cells that is ultimately sustained by a small number of leukaemic stem cells (LSCs) with enhanced self-renewal capacity, impaired differentiation ability, and increase drug resistance (Bonnet and Dick Nat Med. 1997; 3(7):730-7). The LSC population is found enriched inside the CD34+CD38− AML blast population.

The next data set has as its system healthy blood cells. Particulars: 0.1, 1 and 10 μM, 24 h or 72 h; healthy donor peripheral blood.

Entries after “also recorded” stand apart in the source; their conditions may differ.

`CN1CCc2cccc3c2[C@H]1Cc1ccc(O)c(O)c1-3` [Apomorphine, (6aR)-6-methyl-5,6,6a,7-tetrahydro-4H-dibenzo[de,g]quinoline-10,11-diol]: the “anti-leukaemic effect in the presence of a competitive agonist (5-HT or 5-CT)” value in data set [1] (10 μM antagonist with 5-CT or 5-HT) is “reversed”. Moreover, in data set [1] (0.1, 1 and 10 μM, 72 h, HL-60, KG-1, MonoMac-1, Kasumi-1), the “cell viability of AML cell lines” value is reported as “a reduction in cell viability was detected in a dose-response fashion; also recorded: reduced AML cell viability”. Moreover, the “cell death on AML cell lines” value in data set [1] (subtype-specific 5HTR antagonists, 0.1, 1 and 10 μM, 72 h) is given as “induced cell death”. Besides, the “normal hematopoietic regeneration capacity of lineage-depleted UCB cells” value in data set [2] is “negligible effect”. Besides, the “expression of differentiation-associated surface markers CD11c, CD11b and CD14” value in data set [3] is “induced the expression of CD11c, CD11b and CD14”. In addition, the “cell death on primary AML blasts” value in the data set on primary AML blasts (bulk population) is “induced cell death on primary AML blasts in a dose-response fashion”. Moreover, the “cell viability of the most primitive LSC-enriched blast population” value with primary AML blasts (CD34+CD38- population) is “reduced cell viability”. Further, the “healthy blood cell viability” value in the data set on healthy blood cells was “remains unaffected”.

The values are drawn from patent US11337984B2, “Methods for treating, diagnosing and prognosing a haematological malignancy” (Institut de Recerca Contra La Leucèmia Josep Carreras, priority 2014, dated 2022).
